Reference: the NIST ThermoML archive (doi:10.1021/je400282h)
Numbers after ± are expanded uncertainties.

Details: Liquid, Ebulliometric method (Recirculating still)

Compound	vapor or sublimation pressure (391.03 K)	vapor or sublimation pressure (373.15 K)
CC(=O)O [acetic acid]	101.32 ± 0.46 kPa	–
O [water]	–	101.32 ± 0.46 kPa
